Results as given in patent US20100081622A1, “Reduction of parathyroid hormone levels” (Sanos Bioscience A/S, priority 2008, published 2010).

Experiments:
serum PTH = conditions: tHPT patients, after 10 weeks of treatment; cited from earlier work
[1] = rats; cited from earlier work
plasma PTH [2] = assay: Plasma PTH after morning administration of GLP-2 in fasting subjects (Example 1); format: in vivo, human; conditions: postmenopausal women, one dose of 100, 200, 400 or 800 μg at 9 am, followed 8 hrs, FIG. 1
Experimental: The study was a randomized, block-stratified, placebo-controlled, parallel study. A total of 60 subjects of postmenopausal women were included and allocated to one of five groups each including 12 subjects receiving one dose of 100 μg, 200 μg, 400 μg, 800 μg GLP-2, or placebo.
On the day of treatment with the study medication, the subjects met at the study site after an overnight fast. The study medication was administered at 9 am (0 hrs) and the subjects remained fasting for another 8 hrs, thus at 5 pm the fasting period ended.

plasma PTH [3] = assay: Plasma PTH at Day 1 and Day 120 after daily bedtime administration for 120 days (Example 3); format: in vivo, human; conditions: postmenopausal women with osteopenia; daily 0.4, 1.6 or 3.2 mg subcutaneous at bedtime for 120 days plus calcium and vitamin D
Experimental: The study was a randomised, double-blinded, placebo-controlled, parallel group and dose-ranging study in 160 postmenopausal women with osteopenia (BMD T-score, −2.5≦T≦−1.0) at one or more of the regions: the lumbar spine, femoral neck or total hip. Forty (40) subjects were randomised to each treatment group to receive treatment with daily doses of 0.4 mg, 1.6 mg or 3.2 mg of GLP-2 plus calcium (800-1000 mg/day) and vitamin D (400-800 IU/day), or placebo plus calcium (800-1000 mg/day) and vitamin D (400-800 IU/day) for 120 days.
The treatment involved a daily injection of the study medication at bedtime (10:00 pm±1 hour) for 120 consecutive days.
Pharmacokinetic/dynamic sampling during treatment Day 1 and 120 included blood and urine samples collected at the time points: −1 hour, 0 min, 1 hour, 2 hours, 3 hours, 6 hours and 10 hours in connection with the injection of the study medication for the assessment of efficacy parameters and pharmacokinetic/dynamic parameters of subcutaneous injections of GLP-2.

plasma PTH [4] = assay: Plasma PTH after bedtime administration of GLP-2 in non-fasting subjects (Example 2); format: in vivo, human; conditions: postmenopausal women, 2x800 μg 3 hrs apart versus 1600 μg once, at bedtime, FIG. 2
Experimental: The study was a randomized, block-stratified, placebo-controlled, parallel study. A total of 44 postmenopausal women were included and randomly assigned to treatment with either 1600 μg GLP-2 (n=14), 800 μg GLP-2 twice (administered 3 hrs apart) (n=15), or placebo, i.e. saline (n=15). All subjects received 2 injections one at 10 pm […] and one 3 hrs later at 1 am […]. Thus, the placebo group was given two injections of saline and the 2×800 μg group two injections of 800 μg GLP-2, while the 1600 μg group received one injection of 1600 μg GLP-2 and one injection of saline.
On the day of treatment with the study medication, blood samples for efficacy measurement was taken from 10 pm every hour until 8 am.

For `C[C@@H](NCCCc1cccc(C(F)(F)F)c1)c1cccc2ccccc12` [Cinacalcet], the “reduction in serum PTH” value (serum PTH) is listed as 21.8%.

In the case of `C=C1/C(=C\C=C2/CCC[C@]3(C)[C@@H]([C@H](C)CCCC(C)(C)O)CC[C@@H]23)C[C@@H](O)C[C@@H]1O` [calcitriol], the aortic calcification [1] is listed as “moderate to marked aortic calcification”.

With “His-Ala-Asp-Gly-Ser-Phe-Ser-Asp-Glu-Met-Asn-Thr-Ile-Leu-Asp-Asn-Leu-Ala-Ala-Arg-Asp-Phe-Ile-Asn-Trp-Leu-Ile-Gln-Thr-Lys-Ile-Thr-Asp-Arg (HADGSFSDEMNTILDNLAARDFINWLIQTKITDR; printed: His-Ala-Asp-Gly-Ser-Phe-Ser-Asp-Glu-Met-Asn-Thr-Ile-Leu-Asp-Asn-Leu-Ala-Ala-Arg-Asp-Phe-Ile-Asn-Trp-Leu-Ile-Gln-Thr-Lys-Ile-Thr-Asp-Arg) [GLP-2]” the “plasma PTH level after GLP-2” value (plasma PTH [2]) was “dose dependent rapid decrease in PTH which gradually abates over an 8 hour period”, the “effect on plasma PTH over the treatment period, Day 1 versus Day 120” value (plasma PTH [3]) was “remains consistent” and the “plasma PTH, area difference between treatment and placebo curves” value (plasma PTH [4]) was “two injections of 800 μg produced a greater area difference between the treatment and placebo curves”.
